Reference: publication PMC6054517, “Design and synthesis of novel oridonin analogues as potent anticancer agents” (Journal of Enzyme Inhibition and Medicinal Chemistry, 2018)
Where two headings read alike, the source gives them in different places.

Tests used:
[1] = system: MGC803; assay: MTT antiproliferative assay, MGC803 cells; assay type: cell-based, human; conditions: for IC50: Homo sapiens, MGC-803, MTT, 48 h, means ± SD, n = 3
Description: (§1) Human gastric cancer (AGS), human differentiation of advanced gastric cancer (MGC803), human colorectal cancer (HCT116), human lung cancer (A549), human hepatocellular carcinoma (Bel7402) and human cervical cancer (HeLa) cell lines were obtained from the State Key Laboratory of Natural Resources and Functional Molecules of the Changbai Mountain (Yanbian University) and maintained in Dulbecco’s modified Eagle’s medium and RPMI Media 1640 (RPMI1640), supplemented with 10% foetal bovine serum 100 IU/ml penicillin, […] and 2 mmol/l L-glutamine (Sigma) at 37 °7 in a humidified atmosphere containing 5% CO2.
(§2) All six human cancer cell lines and normal L02 cells were seeded in 96-well plates at the appropriate densities to ensure exponential growth throughout the experimental period (9 × 10^3 cells per well) and then allowed to adhere for 24 h. The cells were then treated for 48 h with four serial dilutions (100, 50, 10, and 1 µM) of each compound. 5-Fluorouracil (5-FU) was used as the positive control. After incubation for 48 h, 10 µl MTT solution was added to each well to give a final concentration of 2 mg ml^−1. The plates were then incubated for further 4 h. After incubation, the MTT solution was removed and 150 µl DMSO was added to each well to solubilise the formed product. To ensure complete solubilisation, the plates were shaken vigorously for 10 min at room temperature. The optometric density (OD) was read on a microplate reader (ELx800, BioTek, Highland Park, Winooski, VT) at a wavelength of 492 nm and the data were subsequently analysed. The percentage of cell growth inhibition was calculated from the following equation: inhibitory rate (%) = [1–(ODtreated–ODblank)/(ODcontrol–ODblank)] × 100.
(§3) The MTT assay was performed using a standard protocol.

[2] = system: A549; assay: MTT antiproliferative assay, A549 cells; assay type: cell-based, human; conditions: for IC50: Homo sapiens, A549, MTT, 48 h, means ± SD, n = 3
Description: as §1, §2, §3

[3] = system: Bel7402; assay: MTT antiproliferative assay, Bel7402 cells; assay type: cell-based, human; conditions: for IC50: Homo sapiens, Bel-7402, MTT, 48 h, means ± SD, n = 3
Description: as §1, §2, §3

[4] = system: Hela; assay: MTT antiproliferative assay, HeLa cells; assay type: cell-based, human; conditions: Homo sapiens, HeLa; MTT, 48 h, means ± SD, n = 3
Description: as §1, §2, §3

[5] = system: AGS, MGC803, Bel7402, HCT116, A549, and HeLa; assay: MTT assay, overall statement on six tumour cell lines; assay type: cell-based, human; conditions: six cancer cell lines
Description: as §1, §2, §3

[6] = system: HCT116; assay: MTT antiproliferative assay, HCT116 cells; assay type: cell-based, human; conditions: for IC50: Homo sapiens, HCT-116, 48 h, MTT, 48 h, means ± SD, n = 3
Description: as §1, §2, §3

[7] = system: AGS; assay: MTT antiproliferative assay, AGS cells; assay type: cell-based, human; conditions: for IC50: 48 h, MTT, means ± SD, n = 3
Description: as §1, §2, §3

[8] = system: A549 cells; conditions: cited from earlier work
[9] = system: L02; assay: MTT assay on normal cell line L02; assay type: cell-based; conditions: normal human liver cell line L02, MTT, 48 h
Method: as §2, with “5-Fluorouracil (5-FU) was used as the positive control.” left out
Lack of selective cytotoxicity is the main factor that restricts the dose of most conventional chemotherapeutic agents. […] Selectivity indexes between cancer cells and L-02 cells were calculated.

`CC1(C)CC[C@H](O)C23CO[C@](O)([C@@H](O)[C@H]12)[C@]12C(=O)/C(=C/c4ccccc4O)[C@H](CC[C@@H]31)[C@H]2O` [Compound 2v, (1S,4aR,5S,6S,6aR,9S,11aS,14R,E)-1,5,6,14-tetrahydroxy-8-(2-hydroxybenzylidene)-4,4-dimethyldecahydro-1H-6,11b-(epoxymethano)-6a,9-methanocyclohepta[a]naphthalen-7(8H)-one] gave an IC50 [1] of 32.9 ± 2.31 µM, an IC50 [2] of over 100 µM and an IC50 [3] of 60.3 ± 4.14 µM. For the same compound, the IC50 [4] was over 100 µM, the “antiproliferative activities against the six tumour cell lines (in words)” value (“antiproliferative activities” below) [5] was “poor antiproliferative activities” and the IC50 [6] was 28.2 ± 2.67 µM. For the same compound, the IC50 ([7]; Homo sapiens, AGS) was 30.3 ± 2.24 µM.
In the case of `CCOc1cccc2c1OC(C(=O)/C=C/c1ccc(N(C)C)cc1)C2` (stereo not drawn) [Compound 5], the IC50 ([8]; A549) is listed as 9 µM.
For `COc1ccc(C=C2C(=O)C34C(O)C2CCC3C23COC4(O)C(O)C2C(C)(C)CCC3O)c(OC)c1` [Compound 2l, (1S,4aR,5S,6S,6aR,9S,11aS,14R,E)-8-(2,4-dimethoxybenzylidene)-1,5,6,14-tetrahydroxy-4,4-dimethyldecahydro-1H-6,11b-(epoxymethano)-6a,9-methanocyclohe-pta[a]naphthalen-7(8H)-one], the IC50 [1] was 3.49 ± 0.44 µM, the “Selectivity index MGC803” value ([1]; IC50 on normal cells (L02)/IC50 on tumour cells (MGC803)) was 2.05 and the IC50 [2] was 5.12 ± 0.49 µM. The “Selectivity index A549” value ([2]; IC50 on normal cells (L02)/IC50 on tumour cells (A549)) was 1.40, the IC50 [3] was 2.41 ± 0.37 µM and the “Selectivity index Bel7402” value ([3]; IC50 on normal cells (L02)/IC50 on tumour cells (Bel7402)) was 2.97. The IC50 [4] was 14.3 ± 2.04 µM, the “antiproliferative activities” value [5] was “more potent antiproliferative activities in vitro than oridonin” and the IC50 [6] was 2.28 ± 0.54 µM. The “Selectivity index HCT116” value ([6]; IC50 on normal cells (L02)/IC50 on tumour cells (HCT116)) was 3.14, the “Selectivity index AGS” value ([7]; IC50 on normal cells (L02)/IC50 on tumour cells (AGS)) was 1.22 and the IC50 [7] was 5.85 ± 1.55 µM. It also gave an IC50 [9] of 7.15 ± 1.36 µM.
With `CC1(C)CC[C@H](O)C23CO[C@](O)([C@@H](O)[C@H]12)[C@]12C(=O)/C(=C/c4cccc(O)c4)[C@H](CC[C@@H]31)[C@H]2O` [Compound 2w, (1S,4aR,5S,6S,6aR,9S,11aS,14R,E)-1,5,6,14-tetrahydroxy-8-(3-hydroxybenzylidene)-4,4-dimethyldecahydro-1H-6,11b-(epoxymethano)-6a,9-methanocyclohepta[a]naphthalen-7(8H)-one] the IC50 [1] was over 100 µM, the IC50 [2] was over 100 µM and the IC50 [3] was over 100 µM. For the same compound, the IC50 [4] was over 100 µM, the “antiproliferative activities” value [5] was “poor antiproliferative activities” and the IC50 [6] was 22.1 ± 3.28 µM. It also gave an IC50 ([7]; Homo sapiens, AGS) of over 100 µM.
`CC(=O)Nc1ccc(/C=C2/C(=O)[C@]34[C@H](O)[C@H]2CC[C@H]3C23CO[C@]4(O)[C@@H](O)[C@@H]2C(C)(C)CC[C@@H]3O)cc1` [Compound 2t, N-(4-((E)-((1S,4aR,5S,6S,6aR,9S,11aS,14R)-1,5,6,14-tetrahydroxy-4,4-dimethyl-7-oxodecahydro-1H-6,11b-(epoxymethano)-6a,9-methanocyclohepta[a]naphthalen-8(7H)-ylidene)methyl)phenyl)acetamide] gave an IC50 [1] of 10 ± 0.84 µM, an IC50 [2] of 97.1 ± 5.93 µM and an IC50 [3] of 14.6 ± 1.66 µM. For the same compound, the IC50 [4] was over 100 µM, the “antiproliferative activities” value [5] was “poor antiproliferative activities” and the IC50 [6] was 47.9 ± 3.91 µM. The IC50 ([7]; Homo sapiens, AGS) was 22.1 ± 1.04 µM.
With `CC1(C)CC[C@H](O)C23CO[C@](O)([C@@H](O)[C@H]12)[C@]12C(=O)/C(=C/c4ccc(N)cc4)[C@H](CC[C@@H]31)[C@H]2O` [Compound 2s, (1S,4aR,5S,6S,6aR,9S,11aS,14R,E)-8-(4-aminobenzylidene)-1,5,6,14-tetrahydroxy-4,4-dimethyldecahydro-1H-6,11b-(epoxymethano)-6a,9-methanocyclohepta[a]-naphthalen-7(8H)-one] the IC50 [1] was 53.2 ± 4.05 µM, the IC50 [2] was 99.8 ± 7.45 µM and the IC50 [3] was 7 ± 1.05 µM. The IC50 [4] was over 100 µM, the “antiproliferative activities” value [5] was “poor antiproliferative activities” and the IC50 [6] was 10 ± 1.13 µM. For the same compound, the IC50 ([7]; Homo sapiens, AGS) was 51 ± 3.34 µM.
`CC1(C)CC[C@H](O)C23CO[C@](O)([C@@H](O)[C@H]12)[C@]12C(=O)/C(=C/c4ccc(O)cc4)[C@H](CC[C@@H]31)[C@H]2O` [Compound 2x, (1S,4aR,5S,6S,6aR,9S,11aS,14R,E)-1,5,6,14-tetrahydroxy-8-(4-hydroxybenzylidene)-4,4-dimethyldecahydro-1H-6,11b-(epoxymethano)-6a,9-methanocyclohepta[a]naphthalen-7(8H)-one] showed an IC50 [1] of over 100 µM, an IC50 [2] of over 100 µM and an IC50 [3] of over 100 µM. For the same compound, the IC50 [4] was over 100 µM, the “antiproliferative activities” value [5] was “poor antiproliferative activities” and the IC50 [6] was 30.1 ± 3.57 µM. The IC50 ([7]; Homo sapiens, AGS) was over 100 µM.
`CC1(C)CCC(O)C23COC(O)(C(O)C12)C12C(=O)C(=Cc4ccc(F)cc4)C(CCC31)C2O` [Compound 2c, (1S,4aR,5S,6S,6aR,9S,11aS,14R,E)-8-(4-fluorobenzylidene)-1,5,6,14-tetrahydroxy-4,4-dimethyldecahydro-1H-6,11b-(epoxymethano)-6a,9-methanocyclohepta[a]n-aphthalen-7(8H)-one] showed an IC50 [1] of over 100 µM, an IC50 [2] of 59.6 ± 4.75 µM and an IC50 [3] of 12.6 ± 1.05 µM. The IC50 [4] was over 100 µM, the IC50 [6] was 10.2 ± 1.12 µM and the IC50 ([7]; Homo sapiens, AGS) was 14.3 ± 2.43 µM.
`CC1(C)CC[C@H](O)C23CO[C@](O)([C@@H](O)[C@H]12)[C@]12C(=O)/C(=C/c4ccc(NC(=O)c5ccccc5)cc4)[C@H](CC[C@@H]31)[C@H]2O` [Compound 2u, N-(4-((E)-((1S,4aR,5S,6S,6aR,9S,11aS,14R)-1,5,6,14-tetrahydroxy-4,4-dimethyl-7-oxodecahydro-1H-6,11b-(epoxymethano)-6a,9-methanocyclohepta[a]naphthalen-8(7H)-ylidene)methyl)phenyl)benzamide] showed an IC50 [1] of 12.2 ± 0.94 µM, an IC50 [2] of 21.5 ± 1.88 µM and an IC50 [3] of 7.35 ± 1.28 µM. It also gave an IC50 [4] of 9.79 ± 1.08 µM, an IC50 [6] of 4.02 ± 0.33 µM and an IC50 ([7]; Homo sapiens, AGS) of 12 ± 1.99 µM.
In the case of `C=C1C(=O)O[C@@H]2/C=C(\C)CC/C=C(\C)CC[C@@H]12` [Costunolide], the IC50 ([8]; A549 cells) is listed as 39.8 µM.
In the case of `COc1ccc(/C=C2/C(=O)[C@]34[C@H](O)[C@H]2CC[C@H]3C23CO[C@]4(O)[C@@H](O)[C@@H]2C(C)(C)CC[C@@H]3O)cc1OC` [Compound 2m, (1S,4aR,5S,6S,6aR,9S,11aS,14R,E)-8-(3,4-dimethoxybenzylidene)-1,5,6,14-tetrahydroxy-4,4-dimethyldecahydro-1H-6,11b-(epoxymethano)-6a,9-methanocyclohepta[a]naphthalen-7(8H)-one], the IC50 [1] is reported as 17.7 ± 1.67 µM, the IC50 [2] is reported as 13.6 ± 1.89 µM and the IC50 [3] is reported as 3.15 ± 0.64 µM. The IC50 [4] was 30.7 ± 2.9 µM, the IC50 [6] was 11.1 ± 1.83 µM and the IC50 ([7]; Homo sapiens, AGS) was 17.6 ± 2.32 µM.
For `C/C1=C\[C@H]2OC(=O)/C(=C/c3ccc(Cl)cc3)[C@@H]2CC/C(C)=C/CC1` [Compound 3], the IC50 ([8]; A549 cells) is given as 15.7 µM.
